Assay results as given in patent US10202658B2, “Methods for determining hypersusceptibility of HIV-1 to non-nucleoside reverse transcriptase inhibitors” (Monogram Biosciences, Inc., priority 2005, dated 2019).

Assays:
Type in all cases: cell-based
[1] = tested on: HIV-1, RT mutations: None; experiment: PhenoSense resistance test vector assay, clinical isolates without NRTI, NNRTI or PI mutations (WT reference group); conditions: share of samples designated hypersusceptible
Experimental: (§1) In preferred embodiments, the phenotypic analysis of NNRTI hypersusceptibility is performed using PHENOSENSE™ (ViroLogic Inc., South San Francisco, Calif.). See Petropoulos et al., 2000, Antimicrob. Agents Chemother. 44:920-928; U.S. Pat. Nos. 5,837,464 and 6,242,187. PHENOSENSE™ is a phenotypic assay that achieves the benefits of phenotypic testing and overcomes the drawbacks of previous assays. Because the assay has been automated, PHENOSENSE™ provides high throughput methods under controlled conditions for determining NNRTI resistance, susceptibility, or hypersusceptibility of a large number of individual viral isolates.
(§2) The assay can be performed by first co-transfecting host cells with RTV DNA and a plasmid that expresses the envelope proteins of another retrovirus, for example, amphotropic murine leukemia virus (MLV). Following transfection, viral particles can be harvested from the cell culture and used to infect fresh target cells in the presence of varying amounts of anti-viral drug(s). The completion of a single round of viral replication in the fresh target cells can be detected by the means for detecting replication contained in the vector. In a preferred embodiment, the completion of a single round of viral replication results in the production of luciferase. By monitoring the amount of, e.g., luciferase activity in the presence of the varying amounts of antiviral drug(s), a resistance curve can be constructed by plotting luciferase activity versus drug concentration. The susceptibility of an HIV, or population of HIV, can be determined by measuring the concentration of antiviral drug at which the luciferase activity detected is half-maximal. This number, the IC50, provides a standard and convenient measure of drug resistance.
(§3) Patient-derived segment(s) corresponding to the HIV protease and reverse transcriptase coding regions were amplified by the reverse transcription-polymerase chain reaction method (RT-PCR) using viral RNA isolated from viral particles present in the plasma or serum of HIV-infected individuals as follows. […]

[2] = tested on: HIV-1 NL4-3 SDM, L74V in reverse transcriptase; experiment: NNRTI susceptibility of site-directed mutant (SDM) containing L74V in NL4-3 background; conditions: relative to NL4-3
Experimental: as §1
as §2, with “By monitoring the amount of, e.g., luciferase activity in the presence of the varying amounts of antiviral drug(s), a resistance curve can be constructed by plotting luciferase activity versus drug concentration.” left out, “This number, the IC50, provides a standard and convenient measure of drug resistance.” left out
(§4) Resistance tests were carried out with resistance test vectors using two host cell types. […] The resistance test vector viral particles were then used to infect a second host cell (the target host cell) in which the expression of the indicator gene is measured.
(§5) The amount of luciferase activity detected in infected cells is used as a direct measure of “infectivity,” i.e., the ability of the virus to complete a single round of replication. Thus, drug resistance or sensitivity can be determined by plotting the amount of luciferase activity produced by patient derived viruses in the presence of varying concentrations of the antiviral drug. […]

[3] = tested on: HIV-1, RT mutations: K70R and 2 TAMs; experiment: PhenoSense resistance test vector assay, clinical isolates with K70R and 2 TAMs; conditions: share of samples designated hypersusceptible
Experimental: as §1, §2, §3

[4] = tested on: HIV-1, RT mutations: 2 NAMs; experiment: PhenoSense resistance test vector assay, clinical isolates with 2 NAMs; conditions: share of samples designated hypersusceptible
Experimental: as §1, §2, §3

[5] = tested on: HIV-1, RT mutations: T215Y and 2 TAMs and V118 wt; experiment: PhenoSense resistance test vector assay, clinical isolates with T215Y and 2 TAMs and V118 wt; conditions: share of samples designated hypersusceptible
Experimental: as §1, §2, §3

[6] = tested on: HIV-1, RT mutations: 184V; experiment: PhenoSense resistance test vector assay, clinical isolates with 184V; conditions: share of samples designated hypersusceptible
Experimental: as §1, §2, §3

[7] = tested on: HIV-1, RT mutations: T215Y and 2 TAMs and H208 wt; experiment: PhenoSense resistance test vector assay, clinical isolates with T215Y and 2 TAMs and H208 wt; conditions: share of samples designated hypersusceptible
Experimental: as §1, §2, §3

[8] = tested on: HIV-1 NL4-3 SDM, M184V in reverse transcriptase; experiment: NNRTI susceptibility of site-directed mutant (SDM) bearing only M184V in NL4-3 background; conditions: mean+/-SD of 17 replicates, p<0.00001 versus reference
Experimental: as §1
as §2, with “By monitoring the amount of, e.g., luciferase activity in the presence of the varying amounts of antiviral drug(s), a resistance curve can be constructed by plotting luciferase activity versus drug concentration.” left out, “This number, the IC50, provides a standard and convenient measure of drug resistance.” left out
as §4, §5

[9] = tested on: HIV-1, RT mutations: T215Y and 2 TAMs and V118I; experiment: PhenoSense resistance test vector assay, clinical isolates with T215Y and 2 TAMs and V118I; conditions: share of samples designated hypersusceptible
Experimental: as §1, §2, §3

[10] = tested on: HIV-1, RT mutations: 69X; experiment: PhenoSense resistance test vector assay, clinical isolates with 69X; conditions: share of samples designated hypersusceptible
Experimental: as §1, §2, §3

Cc1ccnc2c1NC(=O)c1cccnc1N2C1CC1 [NVP, nevirapine]
% IC50 0.4 fold < WT [1]: 8.1% | FC (fold change in IC50) [2]: 0.59+/−0.06 | % IC50 0.4 fold < WT [3]: 36.9% | % IC50 0.4 fold < WT [4]: 39.8% | % IC50 0.4 fold < WT [5]: 37.5% | % IC50 0.4 fold < WT [6]: 16.3% | % IC50 0.4 fold < WT [7]: 34.8% | FC (fold change in IC50) [8]: 0.67+/−0.05 | % IC50 0.4 fold < WT [9]: 27.1% | % IC50 0.4 fold < WT [10]: 20.8%

O=C1Nc2ccc(Cl)cc2[C@@](C#CC2CC2)(C(F)(F)F)O1 [EFV, efavirenz]
% IC50 0.4 fold < WT [1]: 4.2% | FC (fold change in IC50) [2]: 0.67+/−0.02 | % IC50 0.4 fold < WT [3]: 31.0% | % IC50 0.4 fold < WT [4]: 39.8% | % IC50 0.4 fold < WT [5]: 78.1% | % IC50 0.4 fold < WT [6]: 16.9% | % IC50 0.4 fold < WT [7]: 55.1% | FC (fold change in IC50) [8]: 0.65+/−0.03 | % IC50 0.4 fold < WT [9]: 39.6% | % IC50 0.4 fold < WT [10]: 19.8%

CC(C)Nc1cccnc1N1CCN(C(=O)c2cc3cc(NS(C)(=O)=O)ccc3[nH]2)CC1 [DLV, delavirdine]
% IC50 0.4 fold < WT [1]: 4.9% | FC (fold change in IC50) [2]: 0.68+/−0.06 | % IC50 0.4 fold < WT [3]: 15.7% | % IC50 0.4 fold < WT [4]: 30.1% | % IC50 0.4 fold < WT [5]: 83.9% | % IC50 0.4 fold < WT [6]: 12.3% | % IC50 0.4 fold < WT [7]: 68.7% | FC (fold change in IC50) [8]: 0.65+/−0.05 | % IC50 0.4 fold < WT [9]: 63.8% | % IC50 0.4 fold < WT [10]: 13.2%
